± gives the uncertainty stated by the source.
Assay: xn = mol fraction of the nth substance listed
Settings: 101 kPa

C=CC(=O)OC + CCCC[n+]1ccn(C)c1.F[B-](F)(F)F
Settings | viscosity [mPa·s]
293.15 K, x2 = 0.1387 | 2.163 ± 0.047
293.15 K, x2 = 0.9242 | 108.1 ± 3.4
298.15 K, x2 = 0 | 0.465 ± 0.01
303.15 K, x2 = 0.3354 | 6.16 ± 0.13
303.15 K, x2 = 0.4317 | 11.33 ± 0.25
308.15 K, x2 = 0.8484 | 39.89 ± 0.87
313.15 K, x2 = 0 | 0.36 ± 0.01
318.15 K, x2 = 0 | 0.334 ± 0.007
318.15 K, x2 = 0.6532 | 12.51 ± 0.27
318.15 K, x2 = 0.9242 | 31.5 ± 0.69

OCC(F)(F)F + CCCC[n+]1ccn(C)c1.F[B-](F)(F)F
viscosity [mPa·s]
Settings | x1 = 0.3913 | x1 = 0.5788 | x1 = 0.7238 | x1 = 0.8247 | x1 = 0.9013 | x1 = 0.9587 | x1 = 1
278.15 K | 42.31 ± 0.9 | 15.82 ± 0.32 | 7.33 ± 0.15 | 4.71 ± 0.1 | 3.71 ± 0.08 | 3.42 ± 0.07 | 3.28 ± 0.07
283.15 K | 34.09 ± 0.7 | 13.39 ± 0.27 | 6.37 ± 0.13 | 4.13 ± 0.08 | 3.25 ± 0.07 | 2.97 ± 0.06 | 2.81 ± 0.06
288.15 K | 27.93 ± 0.57 | 11.45 ± 0.23 | 5.59 ± 0.11 | 3.66 ± 0.07 | 2.88 ± 0.06 | 2.6 ± 0.05 | 2.42 ± 0.05
293.15 K | 23.21 ± 0.47 | 9.89 ± 0.2 | 4.95 ± 0.1 | 3.27 ± 0.07 | 2.56 ± 0.05 | 2.29 ± 0.05 | 2.11 ± 0.04
298.15 K | 19.52 ± 0.4 | 8.63 ± 0.18 | 4.41 ± 0.09 | 2.93 ± 0.06 | 2.3 ± 0.05 | 2.03 ± 0.04 | 1.84 ± 0.04
303.15 K | 16.61 ± 0.34 | 7.59 ± 0.15 | 3.96 ± 0.08 | 2.65 ± 0.05 | 2.07 ± 0.04 | 1.81 ± 0.04 | 1.62 ± 0.03
308.15 K | 14.28 ± 0.29 | 6.72 ± 0.14 | 3.57 ± 0.07 | 2.41 ± 0.05 | 1.88 ± 0.04 | 1.62 ± 0.03 | 1.43 ± 0.03
313.15 K | 12.39 ± 0.25 | 6 ± 0.12 | 3.25 ± 0.07 | 2.21 ± 0.05 | 1.71 ± 0.04 | 1.46 ± 0.03 | 1.27 ± 0.03
318.15 K | 10.84 ± 0.22 | 5.39 ± 0.11 | 2.97 ± 0.06 | 2.02 ± 0.04 | 1.56 ± 0.03 | 1.33 ± 0.03 | 1.13 ± 0.02
323.15 K | 9.56 ± 0.2 | 4.87 ± 0.1 | 2.72 ± 0.06 | 1.87 ± 0.04 | 1.43 ± 0.03 | 1.21 ± 0.03 | 1.02 ± 0.02
328.15 K | 8.49 ± 0.17 | 4.42 ± 0.09 | 2.5 ± 0.05 | 1.72 ± 0.04 | 1.31 ± 0.03 | 1.1 ± 0.02 | 0.925 ± 0.02
333.15 K | 7.59 ± 0.16 | 4.03 ± 0.08 | 2.31 ± 0.05 | 1.59 ± 0.03 | 1.21 ± 0.03 | 1 ± 0.02 | 0.824 ± 0.018

OCC(F)(F)F + CCCC[n+]1ccn(C)c1.F[P-](F)(F)(F)(F)F
viscosity [mPa·s]
Settings | x1 = 0.4632 | x1 = 0.5646 | x1 = 0.7299 | x1 = 0.8308 | x1 = 0.9417 | x1 = 1
278.15 K | 51.3 ± 1 | 27.28 ± 0.55 | 10.69 ± 0.22 | 6.23 ± 0.13 | 3.8 ± 0.08 | 3.28 ± 0.07
283.15 K | 40.66 ± 0.82 | 22.32 ± 0.45 | 8.93 ± 0.18 | 5.29 ± 0.11 | 3.26 ± 0.07 | 2.81 ± 0.06
288.15 K | 32.71 ± 0.66 | 18.39 ± 0.37 | 7.58 ± 0.15 | 4.56 ± 0.09 | 2.84 ± 0.06 | 2.42 ± 0.05
293.15 K | 26.74 ± 0.54 | 15.36 ± 0.31 | 6.51 ± 0.13 | 3.97 ± 0.08 | 2.49 ± 0.05 | 2.11 ± 0.04
298.15 K | 22.17 ± 0.45 | 13 ± 0.26 | 5.65 ± 0.12 | 3.49 ± 0.07 | 2.21 ± 0.05 | 1.84 ± 0.04
303.15 K | 18.63 ± 0.38 | 11.13 ± 0.23 | 4.95 ± 0.1 | 3.09 ± 0.06 | 1.96 ± 0.04 | 1.62 ± 0.03
308.15 K | 15.84 ± 0.32 | 9.64 ± 0.2 | 4.38 ± 0.09 | 2.76 ± 0.06 | 1.76 ± 0.04 | 1.43 ± 0.03
313.15 K | 13.61 ± 0.28 | 8.42 ± 0.17 | 3.9 ± 0.08 | 2.49 ± 0.05 | 1.57 ± 0.03 | 1.27 ± 0.03
318.15 K | 11.81 ± 0.24 | 7.42 ± 0.15 | 3.49 ± 0.07 | 2.25 ± 0.05 | 1.41 ± 0.03 | 1.13 ± 0.02
323.15 K | 10.34 ± 0.21 | 6.59 ± 0.13 | 3.15 ± 0.06 | 2.05 ± 0.04 | 1.28 ± 0.03 | 1.02 ± 0.02
328.15 K | 9.12 ± 0.19 | 5.89 ± 0.12 | 2.85 ± 0.06 | 1.88 ± 0.04 | 1.18 ± 0.03 | 0.925 ± 0.02
333.15 K | 8.1 ± 0.16 | 5.3 ± 0.11 | 2.62 ± 0.05 | 1.73 ± 0.04 | 1.07 ± 0.02 | 0.824 ± 0.018

— the CheMixHub ionic liquid set
